Assay results published in patent US20260262643A1, “HERBICIDAL BENZOXAZINES” (FMC CORPORATION, priority 2022, published 2026).

Legend:
kochia [1] = test: Test C postemergence; format: in vivo, Bassia scoparia; settings: 10 days, 0 to 100 scale (0 no effect, 100 complete control)
In short: (§1)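 Test material, in non-phytotoxic solvent with surfactant, was sprayed on the soil directly after seeding (preemergence) or on young plants of 2–10 cm with one to two leaves (postemergence). Greenhouse, 10 days; 0–100 visual control scale.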

ryegrass, Italian [2] = test: Test C postemergence; format: in vivo, Lolium multiflorum; settings: 10 days, 0 to 100 scale (0 no effect, 100 complete control)
In short: as §1

corn [3] = test: Test C preemergence; format: in vivo, Zea mays
In short: as §1

kochia [4] = test: Test C preemergence; format: in vivo, Bassia scoparia
In short: as §1

barnyardgrass [5] = test: Test C postemergence; format: in vivo, Echinochloa crusgalli; settings: 10 days, 0 to 100 scale (0 no effect, 100 complete control)
In short: as §1

rice = test: Test D flooded paddy test; format: in vivo, Oryza sativa; settings: 250 g ai/ha, applied to paddy water, visual rating after 13 to 14 days, scale 0 to 100 (0 no effect, 100 complete control)
In short: (§2)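 Compounds go straight into paddy water over 2-leaf plants in pots flooded to 3 cm. Greenhouse holding lasts 13 to 14 days. Injury is scored by eye against controls from 0 (none) to 100 (complete control).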

ragweed [6] = test: Test C postemergence; format: in vivo, Ambrosia artemisiifolia; settings: 10 days, 0 to 100 scale (0 no effect, 100 complete control)
In short: as §1

soybean [7] = test: Test C preemergence; format: in vivo, Glycine max
In short: as §1

green foxtail [8] = test: Test C preemergence; format: in vivo, Setaria viridis
In short: as §1

corn [9] = test: Test C postemergence; format: in vivo, Zea mays; settings: 10 days, 0 to 100 scale (0 no effect, 100 complete control)
In short: as §1

ryegrass, Italian [10] = test: Test C preemergence; format: in vivo, Lolium multiflorum
In short: as §1

barnyardgrass [11] = test: Test D flooded paddy test; format: in vivo, Echinochloa crus-galli; settings: 250 g ai/ha, applied to paddy water, visual rating after 13 to 14 days, scale 0 to 100 (0 no effect, 100 complete control)
In short: as §2

ducksalad = test: Test D flooded paddy test; format: in vivo, Heteranthera limosa; settings: 250 g ai/ha, applied to paddy water, visual rating after 13 to 14 days, scale 0 to 100 (0 no effect, 100 complete control)
In short: as §2

ragweed [12] = test: Test C preemergence; format: in vivo, Ambrosia artemisiifolia
In short: as §1

sedge, umbrella = test: Test D flooded paddy test; format: in vivo, Cyperus difformis; settings: 250 g ai/ha, applied to paddy water, visual rating after 13 to 14 days, scale 0 to 100 (0 no effect, 100 complete control)
In short: as §2

blackgrass [13] = test: Test C postemergence; format: in vivo, Alopecurus myosuroides; settings: 10 days, 0 to 100 scale (0 no effect, 100 complete control)
In short: as §1

oat, wild [14] = test: Test C postemergence; format: in vivo, Avena fatua; settings: 10 days, 0 to 100 scale (0 no effect, 100 complete control)
In short: as §1

blackgrass [15] = test: Test C preemergence; format: in vivo, Alopecurus myosuroides
In short: as §1

wheat [16] = test: Test C postemergence; format: in vivo, Triticum aestivum; settings: 10 days, 0 to 100 scale (0 no effect, 100 complete control)
In short: as §1

wheat [17] = test: Test C preemergence; format: in vivo, Triticum aestivum
In short: as §1

pigweed, palmer [18] = test: Test C postemergence; format: in vivo, Amaranthus palmeri; settings: 10 days, 0 to 100 scale (0 no effect, 100 complete control)
In short: as §1

oat, wild [19] = test: Test C preemergence; format: in vivo, Avena fatua
In short: as §1

barnyardgrass [20] = test: Test C preemergence; format: in vivo, Echinochloa crusgalli
In short: as §1

galium = test: Test C postemergence; format: in vivo, Galium aparine; settings: 10 days, 0 to 100 scale (0 no effect, 100 complete control)
In short: as §1

green foxtail [21] = test: Test C postemergence; format: in vivo, Setaria viridis; settings: 10 days, 0 to 100 scale (0 no effect, 100 complete control)
In short: as §1

pigweed, palmer [22] = test: Test C preemergence; format: in vivo, Amaranthus palmeri
In short: as §1

soybean [23] = test: Test C postemergence; format: in vivo, Glycine max; settings: 10 days, 0 to 100 scale (0 no effect, 100 complete control)
In short: as §1

horseweed = test: Test C postemergence; format: in vivo, Erigeron canadensis; settings: 10 days, 0 to 100 scale (0 no effect, 100 complete control)
In short: as §1

[24] = 500 g ai/ha, preemergence, 0 to 100 scale (0 no effect, 100 complete control)
[25] = Preemergence, 125 g ai/ha, 0 to 100 scale, 0 no effect, 100 complete control

CCOC[C@H]1CN(C(=O)c2cc(-n3cnc(CC)n3)cc3c2OCCO3)c2cccc(Cl)c2O1 [Compound 387]
Plant response rating, Kochia (kochia [1]; 500 g ai/ha, postemergence): 100 | Plant response rating, Kochia (kochia [1]; Postemergence, 125 g ai/ha): 80 | Plant response rating, Ryegrass, Italian (ryegrass, Italian [2]; 500 g ai/ha, postemergence): 80 | Plant response rating, Ryegrass, Italian (ryegrass, Italian [2]; Postemergence, 125 g ai/ha): 40 | Corn plant response rating (corn [3]; [24]): 30 | Plant response rating, Corn (corn [3]; [25]): 0 | Kochia plant response rating (kochia [4]; [24]): 100 | Plant response rating, Kochia (kochia [4]; [25]): 20 | Plant response rating, Barnyardgrass (barnyardgrass [5]; 500 g ai/ha, postemergence): 60 | Plant response rating, Barnyardgrass (barnyardgrass [5]; Postemergence, 125 g ai/ha): 20 | Plant response rating, Rice (Flood) (rice): 10 | Plant response rating, Ragweed (ragweed [6]; 500 g ai/ha, postemergence): 80 | Plant response rating, Ragweed (ragweed [6]; Postemergence, 125 g ai/ha): 70 | Soybean plant response rating (soybean [7]; [24]): 100 | Plant response rating, Soybean (soybean [7]; [25]): 90 | Foxtail, Green plant response rating (green foxtail [8]; [24]): 100 | Plant response rating, Foxtail, Green (green foxtail [8]; [25]): 50 | Plant response rating, Corn (corn [9]; 500 g ai/ha, postemergence): 70 | Plant response rating, Corn (corn [9]; Postemergence, 125 g ai/ha): 10 | Ryegrass, Italian plant response rating (ryegrass, Italian [10]; [24]): 80 | Plant response rating, Ryegrass, Italian (ryegrass, Italian [10]; [25]): 60 | Plant response rating, Barnyardgrass (Flood) (barnyardgrass [11]): 25 | Plant response rating, Ducksalad (Flood) (ducksalad): 20 | Ragweed plant response rating (ragweed [12]; [24]): 100 | Plant response rating, Ragweed (ragweed [12]; [25]): 80 | Plant response rating, Sedge, Umbrella (Flood) (sedge, umbrella): 70 | Plant response rating, Blackgrass (blackgrass [13]; 500 g ai/ha, postemergence): 90 | Plant response rating, Blackgrass (blackgrass [13]; Postemergence, 125 g ai/ha): 60 | Plant response rating, Oat, Wild (oat, wild [14]; 500 g ai/ha, postemergence): 20 | Plant response rating, Oat, Wild (oat, wild [14]; Postemergence, 125 g ai/ha): 0 | Blackgrass plant response rating (blackgrass [15]; [24]): 20 | Plant response rating, Blackgrass (blackgrass [15]; [25]): 0 | Plant response rating, Wheat (wheat [16]; 500 g ai/ha, postemergence): 30 | Plant response rating, Wheat (wheat [16]; Postemergence, 125 g ai/ha): 10 | Wheat plant response rating (wheat [17]; [24]): 30 | Plant response rating, Wheat (wheat [17]; [25]): 10 | Plant response rating, Pigweed, Palmer (pigweed, palmer [18]; 500 g ai/ha, postemergence): 100 | Plant response rating, Pigweed, Palmer (pigweed, palmer [18]; Postemergence, 125 g ai/ha): 90 | Oat, Wild plant response rating (oat, wild [19]; [24]): 70 | Plant response rating, Oat, Wild (oat, wild [19]; [25]): 40 | Barnyardgrass plant response rating (barnyardgrass [20]; [24]): 100 | Plant response rating, Barnyardgrass (barnyardgrass [20]; [25]): 50 | Plant response rating, Galium (galium; 500 g ai/ha, postemergence): 100 | Plant response rating, Galium (galium; Postemergence, 125 g ai/ha): 100 | Plant response rating, Foxtail, Green (green foxtail [21]; 500 g ai/ha, postemergence): 80 | Plant response rating, Foxtail, Green (green foxtail [21]; Postemergence, 125 g ai/ha): 40 | Pigweed, Palmer plant response rating (pigweed, palmer [22]; [24]): 100 | Plant response rating, Pigweed, Palmer (pigweed, palmer [22]; [25]): 100 | Plant response rating, Soybean (soybean [23]; 500 g ai/ha, postemergence): 100 | Plant response rating, Soybean (soybean [23]; Postemergence, 125 g ai/ha): 100 | Plant response rating, Horseweed (horseweed; 500 g ai/ha, postemergence): 60 | Plant response rating, Horseweed (horseweed; Postemergence, 125 g ai/ha): 50
